Values quoted from earlier work as cited in patent US20160177324A1, “NOVEL PROTEIN AND GENE RELATED TO FLAVONOID O-METHYLTRANSFERASE (FOMT) AND THEIR USES THEREFORE” (INSTITUTE OF BOTANY, THE CHINESE ACADEMY OF SCIENCES, priority 2013, published 2016).

System: cyanidin 3-glucoside 3′-O-methyltransferase (CGMT)
Details: partially purified from Vitis vinifera cell suspension; Bailly et al. 1997; cited from earlier work

Question: With O=C(/C=C/c1ccc(O)cc1)OC[C@H]1O[C@@H](Oc2cc3c(O)cc(=O)cc-3oc2-c2ccc(O)c(O)c2)[C@H](O)[C@@H](O)[C@@H]1O [cyanidin 3-p-coumaroyl glucoside] as the compound, how does the “activity of CGMT with substrate” value read?
Answer: Its value is “no activity”.
